Test: recombinant barcode read abundance after kanamycin selection (control-corrected) (log10(CPM+1)); higher = more efficient recombination; sequences stand for … in AGTGCAGAGAAAATCGGCCAGTTTTCTCTGCCTGCAGTCCGCATGCCGT…AGATTTATGCAGCGGACTGCCTTTCTCCCAAAGTGATAAACCGGACAGTATCATGGACCGGTTTTCCCGGTAATCCGTATTTGCAAGGTTGGTTTCACT; site = the 11-nt target
Method in brief: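 Pooled E. coli screen pairing targets with IS621 bridge RNA target-binding loops. Each oligo (promoter, target, barcode, J23119-driven first 104 bridge RNA bases) was Gibson-cloned into a vector with the remaining 73 bp and T7-inducible recombinase, then co-electroporated with a donor plasmid. Two replicates each were plated on chloramphenicol/ampicillin LB agar (control) or chloramphenicol/ampicillin/kanamycin with 0.1 mM IPTG. Recombination efficiency is recombinant-junction barcode counts as CPM, averaged, control-corrected, reported as log10(CPM+1).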
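Note: IS621 recombinase and bridge RNA in Escherichia coli cells.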

Sequence | recombinant barcode read abundance (log10)
GTTGAGTCTTGGGTTCTAACCTGTTGCGT (site GTTGAGTCTAC) | 1.87
GTTTATACTTGGGTTCTAACCTGTTGCCT (site GTATATACTAG) | 0.0265
GTTTATACTTGGGTTCTAACCTGTTGCCT (site GTCTATACTAG) | 0.091
GTTTATACTTGGGTTCTAACCTGTTGCCT (site GTGTATACTAG) | 0.0593
GTTTATACTTGGGTTCTAACCTGTTGCCT (site GTTTATACTAG) | 0.305
GTTTCGTCTTGGGTTCTAACCTGTTGCCT (site GTTTCGACTAG) | 0.0118
GTTTCGTCTTGGGTTCTAACCTGTTGCCT (site GTTTCGTCTAG) | 0.0924
GTTTGACCTTGGGTTCTAACCTGTTGCGG (site GTTTGACCTCC) | 1.47
GTTTGACCTTGGGTTCTAACCTGTTGCGG (site TAGCTGACTGG) | 0.0274
GTTTGAGCTTGGGTTCTAACCTGTTGCCT (site GTTAGAGCTAG) | 0.231
GTTTGAGCTTGGGTTCTAACCTGTTGCCT (site GTTCGAGCTAG) | 0.261
GTTTGAGCTTGGGTTCTAACCTGTTGCCT (site GTTGGAGCTAG) | 0.05
GTTTGAGCTTGGGTTCTAACCTGTTGCCT (site GTTTGAGCTAG) | 0.625
TAAAAGCCTTGGGTTCTAACCTGTTGCCT (site TAAAAGACTAG) | 0.0773
TAAAAGCCTTGGGTTCTAACCTGTTGCCT (site TAAAAGCCTAG) | 0.42
TAAAAGCCTTGGGTTCTAACCTGTTGCCT (site TAAAAGGCTAG) | 0.0822
TAAAAGCCTTGGGTTCTAACCTGTTGCCT (site TAAAAGTCTAG) | 0.224
TAAATCACTTGGGTTCTAACCTGTTGCCG (site ACGTATGCTAT) | 0.0241
TAAATCACTTGGGTTCTAACCTGTTGCCG (site TAAATCACTCG) | 0.281
TAACGCTCTTGGGTTCTAACCTGTTGCCT (site AAACGCTCTAG) | 0.0696
TAACGCTCTTGGGTTCTAACCTGTTGCCT (site TAACGCTCTAG) | 1.2
TAACGGGCTTGGGTTCTAACCTGTTGCCG (site TAAAGGGCTAG) | 0.0666

Sequence | recombinant barcode read abundance (log10)
TAACGGGCTTGGGTTCTAACCTGTTGCCG (site TAACGGGCTCG) | 0.529
TAACGTACTTGGGTTCTAACCTGTTGCTT (site TAAAGTACTAA) | 0.137
TAACGTACTTGGGTTCTAACCTGTTGCTT (site TAACGTACTAA) | 0.641
TAACGTACTTGGGTTCTAACCTGTTGCTT (site TAAGGTACTAA) | 0.109
TAACGTACTTGGGTTCTAACCTGTTGCTT (site TAATGTACTAA) | 0.0185
TAACTTACTTGGGTTCTAACCTGTTGCAT (site TAACATACTAT) | 0.179
TAACTTACTTGGGTTCTAACCTGTTGCAT (site TAACCTACTAT) | 0.0991
TAACTTACTTGGGTTCTAACCTGTTGCAT (site TAACGTACTAT) | 0.0567
TAACTTACTTGGGTTCTAACCTGTTGCAT (site TAACTTACTAT) | 0.341
TAAGATGCTTGGGTTCTAACCTGTTGCGG (site GCGACATCTAG) | 0.0149
TAAGATGCTTGGGTTCTAACCTGTTGCGG (site TAAGATGCTCC) | 1.78
TAAGGCCCTTGGGTTCTAACCTGTTGCTT (site TAAGGCCCTAA) | 1.56
TAAGGCCCTTGGGTTCTAACCTGTTGCTT (site TCAGGCCCTAG) | 0.33
TAAGTCCCTTGGGTTCTAACCTGTTGCCT (site AAAGTCCCTAG) | 0.233
TAAGTCCCTTGGGTTCTAACCTGTTGCCT (site CAAGTCCCTAG) | 0.583
TAAGTCCCTTGGGTTCTAACCTGTTGCCT (site GAAGTCCCTAG) | 0.017
TAAGTCCCTTGGGTTCTAACCTGTTGCCT (site TAAGTCCCTAG) | 1.9
TAATCGCCTTGGGTTCTAACCTGTTGCCT (site TAATCGACTAG) | 0.122
TAATCGCCTTGGGTTCTAACCTGTTGCCT (site TAATCGCCTAG) | 0.126
TAATCGCCTTGGGTTCTAACCTGTTGCCT (site TAATCGGCTAG) | 0.102
TAATCGCCTTGGGTTCTAACCTGTTGCCT (site TAATCGTCTAG) | 0
TAATCTCCTTGGGTTCTAACCTGTTGCGT (site GGTGGCTCTTG) | 0.0934

Sequence | recombinant barcode read abundance (log10)
TAATCTCCTTGGGTTCTAACCTGTTGCGT (site TAATCTCCTAC) | 0.167
TAATGACCTTGGGTTCTAACCTGTTGCTT (site TAATGACCTAA) | 0.816
TAATGACCTTGGGTTCTAACCTGTTGCTT (site TAATGACCTAT) | 0.123
TAATGTACTTGGGTTCTAACCTGTTGCTT (site TAAAGTACTAA) | 0.0506
TAATGTACTTGGGTTCTAACCTGTTGCTT (site TAACGTACTAA) | 0.0626
TAATGTACTTGGGTTCTAACCTGTTGCTT (site TAAGGTACTAA) | 0.195
TAATGTACTTGGGTTCTAACCTGTTGCTT (site TAATGTACTAA) | 0.0687
TACAACACTTGGGTTCTAACCTGTTGCGT (site GTAGGTCCTCG) | 0.318
TACAACACTTGGGTTCTAACCTGTTGCGT (site TACAACACTAC) | 1.71
TACAAGTCTTGGGTTCTAACCTGTTGCGG (site TACAAGGCTCC) | 0.0774
TACAAGTCTTGGGTTCTAACCTGTTGCGG (site TACAAGTCTCC) | 1.88
TACACGACTTGGGTTCTAACCTGTTGCGG (site TACACGACTCC) | 1.51
TACACGACTTGGGTTCTAACCTGTTGCGG (site TACACTACTCG) | 0
TACAGAGCTTGGGTTCTAACCTGTTGCGG (site TAAAGAGCTCC) | 0.363
TACAGAGCTTGGGTTCTAACCTGTTGCGG (site TACAGAGCTCC) | 2.36
TACAGAGCTTGGGTTCTAACCTGTTGCGG (site TAGAGAGCTCC) | 0.127
TACAGAGCTTGGGTTCTAACCTGTTGCGG (site TATAGAGCTCC) | 0.488
TACAGGACTTGGGTTCTAACCTGTTGCAG (site TACAGGACTCT) | 2.15
TACAGGACTTGGGTTCTAACCTGTTGCAG (site TAGAGGACTCT) | 0.274
TACAGTTCTTGGGTTCTAACCTGTTGCTT (site TACAGTTCTAA) | 0.173
TACAGTTCTTGGGTTCTAACCTGTTGCTT (site TACCATTCTAA) | 0.107
TACATCCCTTGGGTTCTAACCTGTTGCCT (site TACATCCCTAG) | 0.915

Sequence | recombinant barcode read abundance (log10)
TACATCCCTTGGGTTCTAACCTGTTGCCT (site TACATCCCTCG) | 0.0996
TACATCCCTTGGGTTCTAACCTGTTGCCT (site TACATCCCTGG) | 0.0929
TACATCCCTTGGGTTCTAACCTGTTGCCT (site TACATCCCTTG) | 0.0395
TACCCACCTTGGGTTCTAACCTGTTGCAG (site CCGAATTCTAA) | 0.159
TACCCACCTTGGGTTCTAACCTGTTGCAG (site TACCCACCTCT) | 2.41
TACCCTACTTGGGTTCTAACCTGTTGCTA (site TACCCGCCTTA) | 0.146
TACCCTACTTGGGTTCTAACCTGTTGCTA (site TACCCTACTTA) | 0.736
TACCGAGCTTGGGTTCTAACCTGTTGCTG (site CCTGTCACTTG) | 0.377
TACCGAGCTTGGGTTCTAACCTGTTGCTG (site TACCGAGCTCA) | 0.604
TACCGCTCTTGGGTTCTAACCTGTTGCTT (site TACAGCTCTAA) | 0.0488
TACCGCTCTTGGGTTCTAACCTGTTGCTT (site TACCGCTCTAA) | 1.01
TACCGCTCTTGGGTTCTAACCTGTTGCTT (site TACGGCTCTAA) | 0.043
TACCGCTCTTGGGTTCTAACCTGTTGCTT (site TACTGCTCTAA) | 0.158
TACCGTCCTTGGGTTCTAACCTGTTGCAT (site TACCGTCCTAT) | 1.18
TACCGTCCTTGGGTTCTAACCTGTTGCAT (site TATCGTCCTAT) | 0.155
TACCGTCCTTGGGTTCTAACCTGTTGCGG (site GCGTCCTCTAA) | 0.312
TACCGTCCTTGGGTTCTAACCTGTTGCGG (site TACCGTCCTCC) | 1.8
TACCTTACTTGGGTTCTAACCTGTTGCAG (site AGAAGATCTAG) | 0.17
TACCTTACTTGGGTTCTAACCTGTTGCAG (site TACCTTACTCT) | 0.897
TACGAATCTTGGGTTCTAACCTGTTGCCT (site TACGAATCTAG) | 0.881

Reference: the supplement of paper PMC11208160
